# According to publication PMC5608804, “Stepwise Evolution Improves Identification of Diverse Peptides Binding to a Protein Target” (Scientific Reports, 2017):
# Target: T1, streptavidin (Streptomyces avidinii, UniProt P22629)
# T1 construct: purchased GE Healthcare (Little Chalfont, UK)
# Assay: Cy5-streptavidin binding on HotSpot discovery array, 5-mer L-peptide library
# Details: for S/B: signal to background ratio
# Description: To identify hotspot sequences that bind to streptavidin (SA), we bound Cy5-SA to an array library of 2,476,099 5-mer L-peptides synthesized with 19 of 20 natural amino acids (excluding cysteine). The fluorescence signal intensity was aggregated across three independently synthesized arrays; then the 2,047 peptides with a signal-to-background ratio (S/B) >4 were selected. The data was further filtered to select 1,100 peptides for which signal intensities were highly correlated on all 3 arrays (the percentage of mean deviation to mean was <10%, see Supplementary dataset Table 2A). Most selected sequences (1,019 of 1,100) contained HP, PQ, or PM sequences: their presence would be expected in the well-known HPQ and HPM streptavidin binders[13]–[18].
# The comprehensive peptide library included 2,476,099 5-mer peptides synthesized in a single copy with 19 of 20 L- or D-amino acids (excluding cysteine). Libraries were flanked on both N- and C-termini by linkers of 1 or 3 amino acids using a 3:1 glycine-serine mixture.
# Cy5™-streptavidin (Cy5-SA) was purchased from GE Healthcare (Little Chalfont, UK). Freshly deprotected arrays were used in each experiment. Streptavidin binding to all arrays was performed with 0.5 µg/ml Cy5-SA either in binding buffer containing 10 mM Tris-HCl (pH 7.4), 1% alkali-soluble casein (EMD Millipore), 0.05% Tween-20 or in 10 mM Tris-HCl (pH 7.4), 4% BSA (Roche, Basel, Switzerland), 0.05% Tween-20 in a 30 mL PAP Jar container (Evergreen Scientific, Vernon, CA) overnight at 4° C. After incubation, arrays were washed in 20 mM Tris-HCl (pH 7.8), 0.2 M NaCl, 1% SDS or 1X TBS (pH 7.4) for 30 sec followed by a 1 min wash in water, and then dried by spinning in a microcentrifuge equipped with an array holder.
# Cy5 fluorescence intensity of the arrays was measured with an MS200 scanner (Roche NimbleGen, Madison, WI) at resolution 2 µm, wavelength 635 nm, gain 25%, and laser intensity 100%. Cy5 signal intensities were extracted using Image Extraction Software (Roche NimbleGen). Data pre-processing, normalization, and statistical tests were performed using the language R. Data visualization and analysis was performed with the Spotfire 6.5.0 (Tibco, Boston, MA) software platform. Distance analysis and principle component analysis of distance matrices were performed with the R package PEPLIB[19].
# [1] = 5-mer L-peptide library array, Cy5-streptavidin, from average of three arrays
# [2] = 5-mer L-peptide library, from the average of three arrays
# [3] = 5-mer L-peptide library array, Cy5-streptavidin
# [4] = 5-mer L-peptide library array, Cy5-streptavidin, from the average of three arrays
# [5] = average of three arrays, L-peptide 5-mer library
# T1 sequence (P22629 25-183): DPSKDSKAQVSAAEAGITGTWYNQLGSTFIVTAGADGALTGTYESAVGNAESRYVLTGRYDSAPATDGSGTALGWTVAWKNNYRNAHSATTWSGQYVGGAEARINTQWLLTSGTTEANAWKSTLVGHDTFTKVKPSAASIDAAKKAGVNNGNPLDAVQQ
substance,measurement,setting,value
FHPMV,S/B (signal to background ratio),[1],27.2
FHPMW,S/B (signal to background ratio),[2],5.1
FHPQA,S/B (signal to background ratio),[1],138.8
FHPQE,S/B (signal to background ratio),[2],5.1
FHPQG,S/B (signal to background ratio),[1],146.3
FHPQK,S/B,[3],14.2
FHPQL,S/B,[3],7.4
FHPQM,S/B (signal to background ratio),[4],58.1
FHPQN,S/B (signal to background ratio),[1],168.8
FHPQP,S/B,[3],6.3
FHPQQ,S/B (signal to background ratio),[1],49.0
FHPQS,S/B (signal to background ratio),[4],97.1
FHPQT,S/B (signal to background ratio),[1],34.8
FHPQV,S/B (signal to background ratio),[4],107.2
FHPQW,S/B (signal to background ratio),[1],22.2
FHPQY,S/B (signal to background ratio),[1],56.4
FIHPM,S/B (signal to background ratio),[4],68.2
FIHPQ,S/B (signal to background ratio),[1],152.7
FKHPM,S/B (signal to background ratio),[1],44.4
FKHPQ,S/B (signal to background ratio),[1],123.2
FLGHP,S/B (signal to background ratio),[2],4.2
FLHHP,S/B,[3],5.9
FLHPM,S/B (signal to background ratio),[4],84.7
FLHPQ,S/B (signal to background ratio),[1],145.5
FMFMF [L-amino acid 5-mer array peptide],S/B (signal to background ratio),[2],4.2
same,S/B (signal to background ratio),[5],4.2
FMFMI [L-amino acid 5-mer array peptide],S/B (signal to background ratio),[2],4.3
same,S/B (signal to background ratio),[5],4.3
FMHPM,S/B (signal to background ratio),[4],101.3
FMHPQ,S/B (signal to background ratio),[1],206.0
FMPHP,S/B (signal to background ratio),[2],5.0
FNHPM,S/B (signal to background ratio),[4],96.1
FPHPQ,S/B (signal to background ratio),[1],173.5
FQHPQ,S/B (signal to background ratio),[1],161.2
FRHPM,S/B (signal to background ratio),[4],89.2
FRHPQ,S/B (signal to background ratio),[1],211.5
FSHPM,S/B (signal to background ratio),[4],91.4
FSHPQ,S/B (signal to background ratio),[1],192.9
FTHPM,S/B (signal to background ratio),[4],86.0
FTHPQ,S/B (signal to background ratio),[1],177.7
FVHPM,S/B (signal to background ratio),[4],72.0
FVHPQ,S/B (signal to background ratio),[1],150.1
FWHPQ,S/B (signal to background ratio),[1],176.5
FYHPM,S/B (signal to background ratio),[4],99.8
FYHPQ,S/B (signal to background ratio),[1],202.7
FYNFM [L-amino acid 5-mer array peptide],S/B (signal to background ratio),[2],4.7
same,S/B (signal to background ratio),[5],4.7
GAHPM,S/B (signal to background ratio),[1],34.1
GAHPQ,S/B (signal to background ratio),[1],136.7
GEHPM,S/B,[3],14.8
GEHPQ,S/B (signal to background ratio),[4],63.7
GFHPQ,S/B (signal to background ratio),[1],181.0
GGHPQ,S/B (signal to background ratio),[1],124.2
GHHPQ,S/B (signal to background ratio),[1],149.8
GHPMF,S/B,[3],15.1
GHPMG,S/B (signal to background ratio),[4],65.8
GHPMK,S/B (signal to background ratio),[2],4.0
GHPMM,S/B,[3],11.7
GHPMV,S/B (signal to background ratio),[1],21.8
GHPMW,S/B (signal to background ratio),[2],4.4
GHPMY,S/B,[3],11.0
GHPPQ,S/B (signal to background ratio),[2],5.2
GHPQA,S/B (signal to background ratio),[4],110.5
GHPQF,S/B (signal to background ratio),[1],125.7
GHPQG,S/B (signal to background ratio),[1],135.5
GHPQK,S/B,[3],13.3
GHPQM,S/B (signal to background ratio),[1],40.8
GHPQP,S/B (signal to background ratio),[2],4.5
GHPQV,S/B (signal to background ratio),[4],97.6
GHPQW,S/B,[3],18.1
GHPQY,S/B (signal to background ratio),[1],40.1
GIHPQ,S/B (signal to background ratio),[4],100.2
GKHPQ,S/B (signal to background ratio),[4],73.5
GLGYH [L-amino acid 5-mer array peptide],S/B (signal to background ratio),[2],4.6
same,S/B (signal to background ratio),[5],4.6
GLHPQ,S/B (signal to background ratio),[1],132.8
GMHPM,S/B (signal to background ratio),[1],38.8
GMHPQ,S/B (signal to background ratio),[1],126.3
GNHPQ,S/B (signal to background ratio),[1],132.4
GPHPQ,S/B (signal to background ratio),[1],144.4
GPMPD,S/B (signal to background ratio),[2],4.4
GQHPM,S/B (signal to background ratio),[1],43.1
GQHPQ,S/B (signal to background ratio),[1],134.5
GRHPM,S/B (signal to background ratio),[4],62.1
GRHPQ,S/B (signal to background ratio),[1],136.4
GSHPM,S/B (signal to background ratio),[1],43.0
GTHPQ,S/B (signal to background ratio),[1],132.9
GVHPM,S/B (signal to background ratio),[1],31.6
GWHPM,S/B (signal to background ratio),[4],97.0
GWHPQ,S/B (signal to background ratio),[1],190.5
GYWTD [L-amino acid 5-mer array peptide],S/B (signal to background ratio),[5],8.4
same,S/B,[3],8.4
HDHPM,S/B (signal to background ratio),[1],51.4
HDHPQ,S/B (signal to background ratio),[4],112.6
HEHPQ,S/B (signal to background ratio),[4],76.5
HFHPM,S/B (signal to background ratio),[4],76.4
HFHPQ,S/B (signal to background ratio),[1],174.7
HFPQN,S/B (signal to background ratio),[2],4.1
HGFPF,S/B (signal to background ratio),[2],4.7
same,S/B (signal to background ratio),[5],4.7
HGFPT,S/B (signal to background ratio),[2],4.2
same,S/B (signal to background ratio),[5],4.2
HGHPM,S/B (signal to background ratio),[4],69.3
HGHPQ,S/B (signal to background ratio),[1],129.3
HHHPM,S/B (signal to background ratio),[4],67.1
HHHPQ,S/B (signal to background ratio),[1],143.8
HHPGQ,S/B (signal to background ratio),[2],4.3
HHPMA,S/B (signal to background ratio),[4],76.0
HHPMF,S/B (signal to background ratio),[1],19.8
HHPMM,S/B,[3],18.7
HHPMN,S/B (signal to background ratio),[1],25.7
HHPMS,S/B (signal to background ratio),[1],40.6
HHPMY,S/B (signal to background ratio),[1],20.0
HHPQA,S/B (signal to background ratio),[1],145.4
HHPQF,S/B (signal to background ratio),[4],110.3
HHPQG,S/B (signal to background ratio),[4],108.6
HHPQI,S/B (signal to background ratio),[1],19.7
HHPQK,S/B,[3],18.7
HHPQL,S/B,[3],5.7
HHPQN,S/B (signal to background ratio),[1],150.9
HHPQQ,S/B (signal to background ratio),[1],45.6
HHPQR,S/B (signal to background ratio),[1],35.2
HHPQV,S/B (signal to background ratio),[4],71.9
HIHPQ,S/B (signal to background ratio),[4],104.7
HKHPQ,S/B (signal to background ratio),[4],86.4
HLHPM,S/B (signal to background ratio),[1],40.7
HMHPM,S/B (signal to background ratio),[4],61.8
HMHPQ,S/B (signal to background ratio),[1],133.8
HNHPM,S/B (signal to background ratio),[1],37.6
HNHPQ,S/B (signal to background ratio),[1],146.9
HPADF,S/B,[3],6.3
HPAFM,S/B,[3],5.7
HPAFQ,S/B (signal to background ratio),[2],4.5
HPAYT,S/B (signal to background ratio),[2],5.1
HPHPQ,S/B (signal to background ratio),[1],185.1
HPLPW,S/B,[3],8.0
HPMAF,S/B,[3],18.0
HPMAM,S/B,[3],6.5
HPMAP,S/B (signal to background ratio),[1],37.9
HPMAQ,S/B,[3],7.2
HPMFA,S/B,[3],17.2
